Earlier results, collected in patent publication US20040191214A1, “Nucleoside vaccine adjuvants” (priority 2001, published 2004).

Test system: lymphocyte
Details: stated as known; see U.S. Pat. Nos. 6,130,326, 6,063,772, 5,767,097 to Tam

Compound | stimulation of Type 1 or Type 2 (cytokine) response
Cl.N=C(N)c1cn([C@@H]2O[C@H](CO)[C@@H](O)[C@H]2O)c2nc[nH]c(=O)c12 [7-(β-D-ribofuranosyl)pyrrolo[2,3-d]4-pyrimidone-5-carboxamidine*HCl] | stimulate a Type 2 response
N=C(N)c1ncn([C@@H]2O[C@H](CO)[C@@H](O)[C@H]2O)n1 [Viramidine, 1-beta-D-ribofuranosyl-1,2,4-triazole-3-carboxamidine] | stimulate a Type 1 response
NC(=O)c1ncn([C@H]2O[C@@H](CO)[C@H](O)[C@@H]2O)n1 [Levovirin, 1-beta-L-ribofuranosyl-1,2,4-triazole-3-carboxamide] | stimulate a Type 1 response
NC(=O)c1ncn([C@@H]2O[C@H](CO)[C@@H](O)[C@H]2O)n1 [Ribavirin, 1-beta-D-ribofuranosyl-1,2,4-triazole-3-carboxamide] | stimulate a Type 1 response
